Source: patent US20240158393A1, “PYRIDONE COMPOUNDS AND METHODS OF USE” (Exelixis, Inc., priority 2021, published 2024)

Experiments:
Assay type in all cases: biochemical
Human Mer = target: T1, Human Mer (Homo sapiens, UniProt Q12866); experiment: Human Mer kinase assay (33P radiometric / HTRF KinEase); conditions: protocols of Examples C-1 and/or C-2
T1 construct: Human Mer (residues R557-E882 with H628Q and R794A, 0.7 nM); purchased Eurofins Pharma Discovery Services UK Limited (KinaseProfiler service)
T1 sequence (Q12866 557-882 limits assumed): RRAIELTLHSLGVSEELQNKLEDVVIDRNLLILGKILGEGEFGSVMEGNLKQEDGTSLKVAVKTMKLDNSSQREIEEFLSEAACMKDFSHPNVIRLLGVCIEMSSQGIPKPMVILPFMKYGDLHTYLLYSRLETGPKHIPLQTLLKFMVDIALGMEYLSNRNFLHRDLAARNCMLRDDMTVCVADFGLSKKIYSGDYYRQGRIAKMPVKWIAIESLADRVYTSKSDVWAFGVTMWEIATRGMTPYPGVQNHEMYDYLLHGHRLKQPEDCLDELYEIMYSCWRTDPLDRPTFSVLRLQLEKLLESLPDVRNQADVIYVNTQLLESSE
Experimental: (§1) Kinase activity and compound inhibition were investigated using the ^33P-Phosphoryl transfer radiometric kinase assay, performed using the KinaseProfiler™ service of Eurofins Pharma Discovery Services UK Limited. Dose-response experiments were performed using nine compound concentrations in a 96-well microtiter plate. For each assay, all compounds were prepared to a 50× final assay concentration (50 μM) in 100% DMSO, then diluted in a half-log series, with the final top concentration at 1 μM. This working stock of the compound was added to the assay well as the first component in the reaction, followed by the remaining components as detailed in the following assay protocols below. The positive control wells (100% kinase activity) contain all components of the reaction including 2% DMSO (control for solvent effects), except the compound of interest. Blank wells contain all components of the reaction, with the reference inhibitor, staurosporine. This reference compound was used to abolish kinase activity and generated the 0% kinase activity base-line. IC50 values were calculated by nonlinear regression analysis using the sigmoidal dose-response (variable slope) curve fit on XLFit version 5.3 (ID Business Solutions).
(§2) Kinase activity and compound inhibition were also investigated using the HTRF® KinEase assay (Cisbio Cat #62TKOPEB) per manufacturer's instructions. In short, compounds were delivered in 300 nL volumes at 10 different concentrations in DMSO (3% final) to empty 384-well assay plates (Corning cat #3824). A mixture of enzyme, 1 μM biotinylated peptide substrate, and buffer in 10 μL volume was added. The assay was started upon the addition of ATP (at Km). The 10 μL reaction was incubated at room temperature. The reaction was stopped upon the addition of detection buffer containing streptavidin-XL665 (5 μL) and TK antibody-Eu3+(5 μL). After a 60 min incubation at room temperature, the fluorescence at 665 nm and 620 nm was read on an Envision microplate reader (Perkin Elmer).
(§3) Kinase activity normalized to DMSO (100% activity) and reference compound at 1 μM and (0% activity) was calculated using the fluorescence ratio […]. IC50 values were calculated by nonlinear regression analysis using a 4-parameter logistic curve fit in ActivityBase XE (IDBS).
(§4) Example C-1: Human Mer (residues R557-E882 with H628Q and R794A, 0.7 nM) was incubated with 8 mM MOPS pH 7.0, 0.2 mM EDTA, 30 mM NaCl, 250 μM GGMEDIYFEFMGGKKK (SEQ ID NO: 2), 10 mM magnesium acetate, and 10 μM [γ-^33P-ATP]. The reaction was initiated by the addition of the Mg/ATP mix. After incubation for 40 minutes at room temperature, the reaction was stopped by the addition of phosphoric acid to a concentration of 0.5%. A reaction aliquot of 10 μL was then spotted onto a P30 filtermat and washed four times for 4 minutes in 0.425% phosphoric acid and once in methanol prior to drying and scintillation counting. Incorporated ^33P was measured using the Wallac Microbeta scintillation counter (Perkin Elmer).
Example C-2: Human MER (residues 528-999; CarnaBio, 1 ng/well) was also incubated with enzymatic buffer (Cisbio) supplemented with 5 mM MgCl2 and 1 mM DTT. The mixture was added to the pre-plated compounds. The reaction was initiated upon addition of ATP at Km (40 μM). The reaction was incubated at room temperature for 60 min and stopped upon the addition of SA-XL665 and TK-antibody both diluted in EDTA-containing kinase detection buffer (Cisbio). The kinase activity was calculated as stated above and the IC50 values were reported.

Human KDR = target: T2, Human KDR (Homo sapiens, UniProt P35968); experiment: Human KDR kinase assay (33P radiometric / HTRF KinEase); conditions: protocols of Examples B-1 and/or B-2
T2 construct: Human KDR (residues K790-V1356, 55 nM); purchased Eurofins Pharma Discovery Services UK Limited (KinaseProfiler, B-1) and/or CarnaBio (B-2)
Experimental: as §1, §2, §3
as §4, with “B-1:” for “C-1:”, “KDR” for “Mer”, “K790-V1356, 55” for “R557-E882 with H628Q and R794A, 0.7”, “0.33 mg/mL myelin basic protein,” for “30 mM NaCl, 250 μM GGMEDIYFEFMGGKKK (SEQ ID NO: 2),”
(§5) Example B-2: Human KDR (residues 790-1356; CarnaBio, 0.1 ng/well) was also incubated with enzymatic buffer (Cisbio) supplemented with 5 mM MgCl2, 1 mM MnCl2, and 1 mM DTT. The mixture was added to the pre-plated compounds. The reaction was initiated upon addition of ATP at Km (4.0 μM). The reaction was incubated at room temperature for 40 min and stopped upon the addition of SA-XL665 and TK-antibody both diluted in EDTA-containing kinase detection buffer (Cisbio). The kinase activity was calculated as stated above and the IC50 values were reported.

Human Met = target: T3, Human Met (Homo sapiens, UniProt P08581); experiment: Human Met kinase assay (33P radiometric / HTRF KinEase); conditions: protocols of Examples D-1 and/or D-2; read-out: c-Met IC50
T3 construct: Human MET (residues 956-1390)
Experimental: as §1, §2, §3
Example D-1: Human Met (residues R974-S1390 with A1209G and V1290L, 3.4 nM) was incubated with 8 mM MOPS pH 7.0, 0.2 mM EDTA, 250 μM KKKGQEEEYVFIE (SEQ ID NO:3), 1 mM sodium orthovanadate, 5 mM […], 10 mM magnesium acetate, and 10 μM [γ-^33P-ATP]. The reaction was initiated by the addition of the Mg/ATP mix. After incubation for 40 minutes at room temperature, the reaction was stopped by the addition of phosphoric acid to a concentration of 0.5%. A reaction aliquot of 10 μL was then spotted onto a P30 filtermat and washed four times for 4 minutes in 0.425% phosphoric acid and once in methanol prior to drying and scintillation counting. Incorporated ^33P was measured using the Wallac Microbeta scintillation counter (Perkin Elmer).
as §5, with “D-2:” for “B-2:”, “MET” for “KDR”, “956-1390;” for “790-1356;”, “DTT” for “MnCl2,”, “MnCl2.” for “DTT.”, “(3.0” for “(4.0”

T3 sequence (P08581 974-1390 limits assumed): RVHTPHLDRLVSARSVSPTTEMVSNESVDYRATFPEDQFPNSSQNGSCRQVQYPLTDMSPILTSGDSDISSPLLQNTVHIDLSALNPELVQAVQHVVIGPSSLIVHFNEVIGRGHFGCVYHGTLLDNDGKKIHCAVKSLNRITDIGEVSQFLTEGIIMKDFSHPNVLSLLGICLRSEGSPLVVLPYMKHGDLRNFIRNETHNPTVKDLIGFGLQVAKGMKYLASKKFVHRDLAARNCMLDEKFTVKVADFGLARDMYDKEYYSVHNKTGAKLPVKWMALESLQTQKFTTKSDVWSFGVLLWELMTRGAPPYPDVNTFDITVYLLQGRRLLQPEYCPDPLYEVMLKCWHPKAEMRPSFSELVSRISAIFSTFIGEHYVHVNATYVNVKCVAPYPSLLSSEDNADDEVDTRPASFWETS
T2 sequence (P35968 790-1356): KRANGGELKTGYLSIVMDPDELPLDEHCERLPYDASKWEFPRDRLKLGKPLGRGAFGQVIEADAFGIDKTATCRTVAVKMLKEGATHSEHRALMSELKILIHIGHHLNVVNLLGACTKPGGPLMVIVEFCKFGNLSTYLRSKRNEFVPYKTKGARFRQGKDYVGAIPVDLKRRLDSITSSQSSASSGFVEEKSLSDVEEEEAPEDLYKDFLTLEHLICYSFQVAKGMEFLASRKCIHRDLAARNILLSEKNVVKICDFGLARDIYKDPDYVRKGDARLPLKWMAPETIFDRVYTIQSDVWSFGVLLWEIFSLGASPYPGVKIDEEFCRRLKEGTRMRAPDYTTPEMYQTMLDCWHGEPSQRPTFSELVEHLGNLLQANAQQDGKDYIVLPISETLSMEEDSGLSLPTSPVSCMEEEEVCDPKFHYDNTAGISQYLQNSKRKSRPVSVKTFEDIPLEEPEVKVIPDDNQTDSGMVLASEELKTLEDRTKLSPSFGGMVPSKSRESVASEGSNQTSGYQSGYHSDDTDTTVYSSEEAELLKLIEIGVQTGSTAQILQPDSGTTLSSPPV

SMILES | IC50 (Human Mer) [nM] | IC50 (Human KDR) [nM] | IC50 (Human Met) [nM]
COc1cc2nccc(Oc3ccc(NC(=O)c4c(C)nc(C)c(OC)c4O)cc3)c2nc1OC [Compound 61, N-[4-[(6,7-Dimethoxy-1,5-naphthyridin-4-yl)oxy]phenyl]-4-hydroxy-5-methoxy-2,6-dimethylpyridine-3-carboxamide] | > 300 | ≤ 100 | > 300
COc1cc2nccc(Oc3ccc(NC(=O)c4c(C)n(C)c(C)c(C(C)C)c4=O)cc3)c2nc1OC [Compound 57, N-[4-[(6,7-Dimethoxy-1,5-naphthyridin-4-yl)oxy]phenyl]-1,2,6-trimethyl-4-oxo-5-propan-2-ylpyridine-3-carboxamide] | ≤ 100 | ≤ 100 | > 300
COc1cc2nccc(Oc3ccc(NC(=O)c4c(C)n(C)c(C)c(OC)c4=O)cc3F)c2nc1OC [Compound 77, N-[4-[(6,7-Dimethoxy-1,5-naphthyridin-4-yl)oxy]-3-fluorophenyl]-5-methoxy-1,2,6-trimethyl-4-oxopyridine-3-carboxamide] | > 300 | > 300 | > 300
COc1cnc2c(Oc3ccc(NC(=O)c4c(C)n(C)c(C)c(OC)c4=O)cc3F)ccnc2c1 [Compound 75, N-[3-Fluoro-4-[(7-methoxy-1,5-naphthyridin-4-yl)oxy]phenyl]-5-methoxy-1,2,6-trimethyl-4-oxopyridine-3-carboxamide] | > 300 | > 300 | > 300
COc1cc2nccc(Oc3ccc(NC(=O)c4c5n(cc(C6=CCCC6)c4=O)CCOC5)cc3)c2nc1OC [Compound G1-6, 7-(Cyclopenten-1-yl)-N-[4-[(6,7-dimethoxy-1,5-naphthyridin-4-yl)oxy]phenyl]-8-oxo-3,4-dihydro-1H-pyrido[2,1-c][1,4]oxazine-9-carboxamide] | ≤ 100 | > 300 | ≤ 100
COc1cc2nccc(Oc3ccc(NC(=O)c4c5n(c(C)c(C6=CCCC6)c4=O)CCOC5)cc3F)c2nc1OC [Compound 69, 7-(Cyclopenten-1-yl)-N-[4-[(6,7-dimethoxy-1,5-naphthyridin-4-yl)oxy]-3-fluorophenyl]-6-methyl-8-oxo-3,4-dihydro-1H-pyrido[2,1-c][1,4]oxazine-9-carboxamide] | ≤ 100 | ≤ 100 | ≤ 100
COc1cnc2c(Oc3ccc(NC(=O)c4cnc(C)c(C5=CCCCC5)c4O)cc3F)ccnc2c1 [Compound 1-8, 5-(Cyclohexen-1-yl)-N-[3-fluoro-4-[(7-methoxy-1,5-naphthyridin-4-yl)oxy]phenyl]-4-hydroxy-6-methylpyridine-3-carboxamide] | ≤ 100 | ≤ 100 | ≤ 100
C=C(C)c1c(C)nc(C)c(C(=O)Nc2ccc(Oc3ccnc4cc(OC)c(OC)nc34)cc2)c1O [Compound 4, N-[4-[(6,7-Dimethoxy-1,5-naphthyridin-4-yl)oxy]phenyl]-4-hydroxy-2,6-dimethyl-5-prop-1-en-2-ylpyridine-3-carboxamide] | ≤ 100 | ≤ 100 | ≤ 100
COc1cc2nccc(Oc3cc(F)c(NC(=O)c4c(C)nc(C)c(OC)c4O)cc3F)c2nc1OC [Compound 68, N-[4-[(6,7-dimethoxy-1,5-naphthyridin-4-yl)oxy]-2,5-difluorophenyl]-4-hydroxy-5-methoxy-2,6-dimethylpyridine-3-carboxamide] | > 300 | ≤ 100 | > 300
CCc1c(Br)c(=O)c(C(=O)Nc2cc(F)c(Oc3ccnc4cc(OC)c(OC)nc34)cc2F)cn1C [Compound 63, 5-Bromo-N-[4-[(6,7-dimethoxy-1,5-naphthyridin-4-yl)oxy]-2,5-difluorophenyl]-6-ethyl-1-methyl-4-oxopyridine-3-carboxamide] | ≤ 100 | > 300 | > 300
COc1cc2nccc(Oc3ccc(NC(=O)c4c5n(cc(C6=CCOCC6)c4=O)CCOC5)cc3F)c2nc1OC [Compound G1-7, 7-(3,6-Dihydro-2H-pyran-4-yl)-N-[4-[(6,7-dimethoxy-1,5-naphthyridin-4-yl)oxy]-3-fluorophenyl]-8-oxo-3,4-dihydro-1H-pyrido[2,1-c][1,4]oxazine-9-carboxamide] | ≤ 100 | > 300 | ≤ 100
COCCOc1cc2ncnc(Oc3ccc(NC(=O)c4c(C)nc(C)c(OC)c4O)cc3F)c2nc1OC [Compound 72, N-[3-Fluoro-4-[6-methoxy-7-(2-methoxyethoxy)pyrido[3,2-d]pyrimidin-4-yl]oxyphenyl]-4-hydroxy-5-methoxy-2,6-dimethylpyridine-3-carboxamide] | > 300 | ≤ 100 | > 300
COc1cc2nccc(Oc3ccc(NC(=O)c4c(C)n(C)c(C)c(C(C)C)c4=O)cc3F)c2nc1OC [Compound 56, N-[4-[(6,7-Dimethoxy-1,5-naphthyridin-4-yl)oxy]-3-fluorophenyl]-1,2,6-trimethyl-4-oxo-5-propan-2-ylpyridine-3-carboxamide] | ≤ 100 | > 300 | > 300
